Data on five molecules can be found in publication PMC8839448, “Novel Pyridothienopyrimidine Derivatives: Design, Synthesis and Biological Evaluation as Antimicrobial and Anticancer Agents” (Molecules, 2022).

Series [1] relates to HepG2 and MCF-7 cancer cell lines. Description: Cytotoxicity, MTT assay, range over both cancer cell lines. It counts as cell-based, human. (Formazan colour is commonly taken as a measure of viable cells.)
Series [2] deals with all the tested yeasts and fungi strains. Description: Antifungal MIC, range over the panel. Format: cell-based.
Series [3] relates to Saccharomycese cerevisiae. Description: In vitro antifungal activity, MIC by broth dilution. It counts as cell-based. As to conditions: Saccharomyces cerevisiae, yeast, read-out: MIC S. cerevisiae.
The test system of series [4] is five bacterial and five fungal strains. The experiment in a line: Antimicrobial MIC, range over bacterial and fungal strains. It counts as cell-based. The conditions noted are these: for MIC range, antibacterial and antifungal: range over bacterial and fungal strains.
In the next series the test system is Candida albicans 10231. Description: In vitro antifungal activity, MIC by broth dilution. Format: cell-based. The conditions noted are these: yeast, read-out: MIC C. albicans.
Series [5] relates to Aspergillus niger EM77 (KF774181). The series is described as above. Format: cell-based. As to conditions: fungi.
Series [6] has as its system breast cancer (MCF-7) cells. The experiment in a line: Cytotoxicity, MTT assay. Format: cell-based, human. As to conditions: Homo sapiens, MCF7, MCF7 cells, read-out: Cytotoxic activity IC50 MCF7.
Series [7] can be described thus: Cytotoxicity against normal cells, MTT assay. The conditions noted are these: human, WISH normal cells.
Text: The cytotoxicity was estimated as IC50 in μM for the tested compounds and the reference drug doxorubicin, and are listed in Table 3.
The next series deals with Candida tropicals 750. The experiment in a line: In vitro antifungal activity, MIC by broth dilution. It counts as cell-based. As to conditions: yeast, read-out: MIC C. tropicals.
The target in the next series is EGFR kinase (Homo sapiens, UniProt P00533). The experiment in a line: In vitro EGFR kinase inhibitory assay (Kinase-Glo MAX kit). The conditions noted are these: for IC50: EGFR IC50, EGFR kinase assay kit, triplicate, ± SD. In general terms: Kinase-Glo measures the ATP left after a reaction by luminescence.
Sequence of EGFR kinase (P00533 25-1210): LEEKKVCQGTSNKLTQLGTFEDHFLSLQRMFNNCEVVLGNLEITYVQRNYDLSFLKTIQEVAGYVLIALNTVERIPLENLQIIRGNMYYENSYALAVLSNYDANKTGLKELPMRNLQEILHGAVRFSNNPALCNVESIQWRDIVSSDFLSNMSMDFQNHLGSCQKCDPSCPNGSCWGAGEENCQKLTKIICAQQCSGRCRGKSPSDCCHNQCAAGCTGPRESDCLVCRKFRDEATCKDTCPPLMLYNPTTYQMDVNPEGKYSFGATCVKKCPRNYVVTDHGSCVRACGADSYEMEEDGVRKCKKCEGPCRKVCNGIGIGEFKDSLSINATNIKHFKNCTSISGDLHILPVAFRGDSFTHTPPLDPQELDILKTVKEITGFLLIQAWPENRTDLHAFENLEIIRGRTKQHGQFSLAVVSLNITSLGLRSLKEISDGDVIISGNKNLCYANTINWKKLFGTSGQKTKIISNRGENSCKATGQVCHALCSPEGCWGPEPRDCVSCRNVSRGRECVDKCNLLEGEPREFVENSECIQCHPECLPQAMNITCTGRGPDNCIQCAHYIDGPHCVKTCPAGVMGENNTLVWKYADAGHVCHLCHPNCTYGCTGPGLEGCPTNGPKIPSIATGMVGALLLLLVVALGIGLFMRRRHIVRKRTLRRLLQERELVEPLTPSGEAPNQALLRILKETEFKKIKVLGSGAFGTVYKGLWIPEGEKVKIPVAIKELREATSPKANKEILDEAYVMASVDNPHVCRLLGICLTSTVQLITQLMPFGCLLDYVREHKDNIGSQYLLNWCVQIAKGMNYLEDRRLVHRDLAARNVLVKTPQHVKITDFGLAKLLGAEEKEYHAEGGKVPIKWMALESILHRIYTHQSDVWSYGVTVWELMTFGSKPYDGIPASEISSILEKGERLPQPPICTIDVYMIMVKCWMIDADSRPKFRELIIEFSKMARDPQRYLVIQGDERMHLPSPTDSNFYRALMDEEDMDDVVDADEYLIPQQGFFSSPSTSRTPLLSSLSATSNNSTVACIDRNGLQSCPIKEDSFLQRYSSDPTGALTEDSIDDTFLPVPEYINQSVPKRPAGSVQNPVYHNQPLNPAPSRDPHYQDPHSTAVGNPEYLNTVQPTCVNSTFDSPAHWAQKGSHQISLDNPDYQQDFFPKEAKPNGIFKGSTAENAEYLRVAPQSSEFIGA
Series [8] deals with Salmonella typhimurium 14028. Description: In vitro antibacterial activity, MIC by broth dilution. Format: cell-based. The conditions noted are these: Salmonella enterica, Gram −ve bacteria, read-out: MIC S. typhimurium. (In general: Dilution methods test growth across graded concentrations, often in twofold steps.)
Series [9] deals with Staphylococcus aureus 25923. The description is as above. It counts as cell-based. The conditions noted are these: Gram +ve bacteria, read-out: MIC S. aureus.
Series [10] deals with hepatocellular carcinoma (HepG2) cells. The experiment in a line: Cytotoxicity, MTT assay. Format: cell-based. The conditions noted are these: Homo sapiens, read-out: Cytotoxic activity IC50 HepG2.
The next series deals with Escherichia coli 8739. The experiment in a line: In vitro antibacterial activity, MIC by broth dilution. Format: cell-based. The conditions noted are these: Gram −ve bacteria.
In the next series the test system is Bacillus cereus 33018. Description: In vitro antibacterial activity, MIC by broth dilution. It counts as cell-based. As to conditions: Gram +ve bacteria, read-out: MIC B. cereus.
The subject of a further series is Aspergillus flavus. Description: In vitro antifungal activity, MIC by broth dilution. As to conditions: fungi. It counts as cell-based.
For another series, the system named is Bacillus subtilis 6633. Description: In vitro antibacterial activity, MIC by broth dilution. It counts as cell-based. As to conditions: Gram +ve bacteria, read-out: MIC B. subtilis.

SMILES strings stand for the structures. ≈ marks a conversion by molar mass, not a printed value. Where “and” joins values, the source holds several entries; their conditions need not be identical. Identical values can stand only once.

Experimental for EGFR kinase: The assay kit is designed to measure EGFR Kinase activity for screening applications using Kinase-Glo® MAX as a detection reagent. The luminescence was measured using a microplate reader (Infinite M200 microplate reader, Tecan, Männedorf, Switzerland) [54]. All assays were performed in triplicate and the relative inhibition (%) of inhibitors was then calculated via comparison with the control with no inhibitor.
In vitro EGFR kinase assay
The assay Kit is designed to measure EGFR Kinase
activity for screening applications using Kinase-Glo® MAX as a detection reagent
using Kinase-Glo® MAX as a detection reagent. Thaw 5x Kinase Buffer 1: ATP and
PTK substrate Poly (Glu:Tyr 4:1) (10 mg/ml) kinase was provided. Then the master
mixture was prepared: N wells x (6 μl 5x Kinase Buffer 1 + 1 µl ATP (500 µM) + 1
µl PTK substrate Poly (Glu:Tyr 4:1) (10 mg/ml)+ 17 μl water) and 25 μl of the
mixture was added to every well. The tested compounds were dissolved in DMSO,
well labeled as “Positive Control", 5 μl of the same solution of the reference drug
erlotinib and “Blank”, 5 μl of the same solution without inhibitor (Inhibitor buffer).
ml of 1x Kinase Buffer 1) was prepared by mixing 600 µl of 5x Kinase Buffer 1 with
The reaction initiated by adding 20 µl of diluted EGFR enzyme to the wells designated “Positive Control” and "Test Inhibitor Control". Incubate at 30°C for 40
minutes. Thaw Kinase-G lo Max reagent. After the 40 minute reaction, 50 µl of
Kinase-Glo Max reagent was added to each well. The plate was covered with
aluminum foil and incubate at room temperature for 15 minutes. Then the
luminescence was measured using the microplate reader (Infinite M200 microplate
reader, Tecan, Männedorf, Switzerland). All assays were performed in triplicate. The
relative inhibition (%) of inhibitors were then calculated compared to the control with
no inhibitor. Then the IC50 values and their standard deviation (SD) for the tested
compounds and the reference drug were determined in (nM).

Turning to `Cc1ccc(-c2cc(-c3ccccc3)nc3sc4c(c23)NC2(CCCC2)N=C4SCC2CO2)cc1` (stereo not drawn) [Compound 9b, 4′-((Oxiran-2-ylmethyl)sulfanyl)-7′-phenyl-9′-(p-tolyl)-1′H-spiro[cyclopentane-1,2′-pyrido[3′,2′:4,5]thieno[3,2-d]pyrimidine]], the melting point (commonly the temperature, or range, at which the solid turns liquid) turned out to be 120 °C. For the same molecule, the “Fold higher growth inhibition than doxorubicin” value in series [1] (HepG2 and MCF-7, relative to doxorubicin) was 2–3 fold. The concentration for half-maximal inhibition (IC50) (in general, the midpoint of a concentration-inhibition curve) in [1] (Homo sapiens, range over HepG2 and MCF-7, read-out: IC50 range, cytotoxic activity against both cell lines) lay in the range of 1170 to 2790 nM. In addition, the “MIC range against the tested yeasts and fungi strains” value in series [2] lay in the range of 4 to 16 µg/mL. Moreover, the minimum inhibitory concentration (MIC) (as a rule, the smallest concentration in the dilution series that meets the test's criterion for growth inhibition) in series [3] was found to be 8 µg/mL (≈ 16.1 µM). The “MIC range, antibacterial and antifungal” value in [4] was 4 to 16 µg/mL. Also, the MIC with Candida albicans 10231 amounted to 4 µg/mL (≈ 8.04 µM). Further, the MIC in [5] amounted to 8 µg/mL (≈ 16.1 µM). For the same molecule, the IC50 in series [6] worked out at 1520 ± 80 nM. Moreover, the half-maximal inhibitory concentration (IC50) in [7] came to 418000 ± 14100 nM. Also, the MIC with Candida tropicals 750 worked out at 4 µg/mL (≈ 8.04 µM). Moreover, it took 7.27 ± 0.11 nM to reach half-maximal inhibition against EGFR kinase (IC50). In series [8], the minimal inhibitory concentration (MIC) was found to be 16 µg/mL (≈ 32.1 µM). The minimal inhibitory concentration (MIC) in series [9] turned out to be 4 µg/mL (≈ 8.04 µM). Moreover, the half-maximal inhibitory concentration (IC50) in series [10] came to 1170 ± 90 nM. Further, the minimum inhibitory concentration (MIC) against Escherichia coli 8739 is 4 µg/mL (≈ 8.04 µM). For the same molecule, the minimum inhibitory concentration (MIC) with Bacillus cereus 33018 came to 8 µg/mL (≈ 16.1 µM). Further, 8 µg/mL (≈ 16.1 µM) was the least that counted as inhibitory with Aspergillus flavus (MIC). For the same molecule, in the series with Bacillus subtilis 6633, the MIC is 4 µg/mL (≈ 8.04 µM).

In turn, `Cc1cc(C)c2c(n1)sc1c(=O)[nH]c(CCl)nc12` [Compound 4a, 2-(Chloromethyl)-7,9-dimethylpyrido[3′,2′:4,5]thieno[3,2-d]pyrimidin-4(3H)-one] returned a melting point of 330 to 331 °C. Besides, the “MIC range against the tested yeasts and fungi strains” value in series [2] was in the range of 4 to 16 µg/mL. Further, in [3], the MIC stood at 8 µg/mL (≈ 28.6 µM). The MIC in the series on Candida albicans 10231 stood at 16 µg/mL (≈ 57.2 µM). For the same molecule, inhibition of growth in series [5] (MIC) required 8 µg/mL (≈ 28.6 µM). The 50% inhibitory concentration (IC50) in series [6] amounted to 15400 ± 450 nM. The concentration for half-maximal inhibition (IC50) in [7] is 460000 ± 11100 nM. Further, the MIC in the series with Candida tropicals 750 is 16 µg/mL (≈ 57.2 µM). In addition, the IC50 on EGFR kinase is 27 nM and 53.6 nM. For the same molecule, on EGFR kinase (relative to erlotinib), the “Fold more potent than erlotinib (EGFR inhibition)” value was 1.5 fold. For the same molecule, the minimum inhibitory concentration (MIC) in [8] is 16 µg/mL (≈ 57.2 µM). The MIC in series [9] was found to be 4 µg/mL (≈ 14.3 µM). For the same molecule, in [10], the half-inhibitory concentration (IC50) was found to be 2990 ± 150 nM. Besides, in the series on Escherichia coli 8739, the MIC stood at 8 µg/mL (≈ 28.6 µM). In addition, the MIC with Bacillus cereus 33018 was 4 µg/mL (≈ 14.3 µM). Further, the minimum inhibitory concentration (MIC) in the series with Aspergillus flavus was 8 µg/mL (≈ 28.6 µM). In the series on Bacillus subtilis 6633, the MIC came to 8 µg/mL (≈ 28.6 µM).

`Cc1cc(C)c2c(n1)sc1c(Cl)nc(Cl)nc12` [Compound 3a, 2,4-Dichloro-7,9-dimethylpyrido[3′,2′:4,5]thieno[3,2-d]pyrimidine] registered a melting point of 250 to 251 °C. The “MIC range against the tested yeasts and fungi strains” value in [2] lay in the range of 4 to 16 µg/mL. The MIC in series [3] was 8 µg/mL (≈ 28.2 µM). Besides, in [4], the “MIC range, antibacterial and antifungal” value lay within 4 to 16 µg/mL. Besides, the minimal inhibitory concentration (MIC) in the series on Candida albicans 10231 stood at 16 µg/mL (≈ 56.3 µM). Also, the minimum inhibitory concentration (MIC) in series [5] came to 8 µg/mL (≈ 28.2 µM). Moreover, the IC50 in [6] turned out to be 7240 ± 640 nM. In series [7], this molecule yielded an IC50 of 417000 ± 15200 nM. For the same molecule, the MIC in the series with Candida tropicals 750 is 8 µg/mL (≈ 28.2 µM). On EGFR kinase, this molecule had a 50% inhibitory concentration (IC50) of 17.3 ± 0.24 nM. For the same molecule, the MIC in series [8] was determined as 16 µg/mL (≈ 56.3 µM). In addition, the MIC in series [9] turned out to be 4 µg/mL (≈ 14.1 µM). The IC50 in series [10] stood at 2310 ± 350 nM. The same molecule displayed an MIC in the series on Escherichia coli 8739 of 8 µg/mL (≈ 28.2 µM). Moreover, in the series on Bacillus cereus 33018, the minimum inhibitory concentration (MIC) is 8 µg/mL (≈ 28.2 µM). The MIC in the series on Aspergillus flavus stood at 8 µg/mL (≈ 28.2 µM). Further, the minimal inhibitory concentration (MIC) with Bacillus subtilis 6633 was determined as 4 µg/mL (≈ 14.1 µM).

With `COc1cccc2c1C(=O)c1c(O)c3c(c(O)c1C2=O)C[C@@](O)(C(=O)CO)C[C@@H]3O[C@H]1C[C@H](N)[C@H](O)[C@H](C)O1` [Doxorubicin, doxorubicin, reference compound], the concentration for half-maximal inhibition (IC50) was 3580 ± 330 nM in series [6], 432000 ± 19300 nM in [7] and 2850 ± 210 nM in series [10].

For `Clc1ccccc1C(c1ccccc1)(c1ccccc1)n1ccnc1` [Clotrimazole, clotrimazole, reference compound], the “MIC range against the tested yeasts and fungi strains” value in [2] lay in the range of 4 to 16 µg/mL. The minimal inhibitory concentration (MIC) in series [3] stood at 8 µg/mL (≈ 23.2 µM); in the series with Candida albicans 10231, 16 µg/mL (≈ 46.4 µM); in series [5], 8 µg/mL (≈ 23.2 µM); in the series with Candida tropicals 750, 8 µg/mL (≈ 23.2 µM); in the series with Aspergillus flavus, 8 µg/mL (≈ 23.2 µM). Moreover, the “MIC range of the reference drugs” value in [4] (range over strains) is 4 to 16 µM.
